Laboratory results from paper PMC3952036 (Cellular and molecular life sciences : CMLS, 2014).

Target: Flag-DOR (murine DOR tagged with Flag at the N-terminus) (Mus musculus, UniProt P32300)
Sequence (P32300 whole entry): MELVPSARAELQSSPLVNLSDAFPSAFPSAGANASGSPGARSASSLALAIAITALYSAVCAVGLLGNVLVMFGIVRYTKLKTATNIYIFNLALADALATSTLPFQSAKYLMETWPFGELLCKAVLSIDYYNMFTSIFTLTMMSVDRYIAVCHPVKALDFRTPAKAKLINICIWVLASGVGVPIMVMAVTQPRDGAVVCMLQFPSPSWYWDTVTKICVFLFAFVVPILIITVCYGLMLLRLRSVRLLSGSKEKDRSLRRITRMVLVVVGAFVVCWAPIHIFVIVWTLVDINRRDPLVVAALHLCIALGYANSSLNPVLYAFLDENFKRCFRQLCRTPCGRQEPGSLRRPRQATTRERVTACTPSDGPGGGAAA

Compound: C=CCN1C[C@H](C)N([C@H](c2ccc(C(=O)N(CC)CC)cc2)c2cccc(OC)c2)C[C@H]1C [SNC-80, (1)-4-[(αR)-α-((2S,5R)-4-allyl-2,5-dimethyl-1-piperazinyl)-3-methoxybenzyl]-N,N-diethylbenzamide]
- log KA ± SEM (M): −6.58 ± 0.43 log M
